The source of these data is BindingDB's records for doi:10.1021/jm00070a001 (Warner-Lambert, 1993).

Where a SMILES comes first, the peptide text is derived from it. [ ]: non-standard residue; d: D form.

This experiment has as its target Endothelin-1 receptor (Oryctolagus cuniculus). The experiment is described as follows: Effective concentration against ET A receptor from rabbit renal artery vascular smooth muscle cells.

`CC[C@H](C)[C@H](NC(=O)[C@H](CC(=O)O)NC(=O)[C@H](CC(C)C)NC(=O)[C@@H](Cc1ccc(O)cc1)NC(C)=O)C(=O)N[C@H](C(=O)N[C@@H](Cc1c[nH]c2ccccc12)C(=O)O)[C@@H](C)CC` (Ac-[dY]LDIIW-OH) gave an IC50 of 0.4 µM.

Turning to `CC[C@H](C)[C@H](NC(=O)[C@H](CC(=O)O)NC(=O)[C@H](CC(C)C)NC(=O)[C@@H](Cc1ccccc1)NC(C)=O)C(=O)N[C@H](C(=O)NC(Cc1cnc[nH]1)C(=O)O)[C@@H](C)CC` (mixture of isomers) [Ac-D-Phe-Leu-Asp-Ile-Ile-DL-His], the IC50 was more than 10 µM. Then `CC[C@H](C)[C@H](NC(=O)[C@H](CC(=O)O)NC(=O)[C@H](CC(C)C)NC(=O)[C@@H](Cc1ccccc1)NC(C)=O)C(=O)N[C@@H](Cc1c[nH]c2ccccc12)C(=O)O` [(S)-3-[(R)-2-((1S,5S)-2-Acetylamino-3-phenyl-propionylamino)-4-methyl-pentanoylamino]-N-{(S)-1-[(S)-1-carboxy-2-(1H-indol-3-yl)-ethylcarbamoyl]-2-methyl-butyl}-succinamic acid] (Ac-[dF]LDIW-OH), with more than 10 µM; and `CC[C@H](C)[C@H](NC(=O)[C@@H](NC(=O)[C@@H](Cc1ccccc1)NC(C)=O)[C@@H](C)CC)C(=O)N[C@@H](Cc1c[nH]c2ccccc12)C(=O)O` [Ac-D-Phe-Ile-Ile-Trp] (Ac-[dF]IIW-OH), with more than 10 µM. Take `CC[C@H](C)[C@H](NC(=O)[C@H](C)NC(=O)[C@H](CC(=O)O)NC(=O)[C@H](CC(C)C)NC(=O)[C@@H](Cc1ccccc1)NC(C)=O)C(=O)N[C@@H](Cc1c[nH]c2ccccc12)C(=O)O` [Ac-D-Phe-Leu-Asp-Ala-Ile-Trp] (Ac-[dF]LDAIW-OH): the IC50 is 3.6 µM.

Molecule `CC[C@H](C)[C@H](NC(=O)[C@H](CC(=O)O)NC(=O)[C@H](CC(C)C)NC(=O)[C@@H](Cc1ccccc1)NC(C)=O)C(=O)N[C@@H](C)C(=O)N[C@@H](Cc1c[nH]c2ccccc12)C(=O)O` [Ac-D-Phe-Leu-Asp-Ile-Ala-Trp] (Ac-[dF]LDIAW-OH) returned an IC50 of 8 µM.

Molecule `CC[C@H](C)[C@H](NC(=O)[C@H](CC(=O)O)NC(=O)[C@H](CC(C)C)NC(=O)[C@@H](Cc1ccccc1)NC(C)=O)C(=O)N[C@H](C(=O)N[C@@H](Cc1csc2ccccc12)C(=O)O)[C@@H](C)CC` [Ac-D-Phe-Leu-Asp-Ile-Ile-Bta] came in with an IC50 of 14 µM.

Molecule `CC[C@H](C)[C@H](NC(=O)[C@H](CC(=O)O)NC(=O)[C@H](CC(C)C)NC(=O)[C@@H](Cc1ccccc1)NC(C)=O)C(=O)N[C@H](C(=O)N[C@@H](Cc1ccc(O)cc1)C(=O)O)[C@@H](C)CC` [Ac-D-Phe-Leu-Asp-Ile-Ile-Tyr] (Ac-[dF]LDIIY-OH) came in with an IC50 of more than 10 µM. Consider `CC[C@H](C)[C@H](NC(=O)[C@H](CC(=O)O)NC(=O)[C@H](CC(C)C)NC(=O)[C@H](N)Cc1ccccc1)C(=O)N[C@H](C(=O)N[C@@H](Cc1c[nH]c2ccccc12)C(=O)O)[C@@H](C)CC` [D-Phe-Leu-Asp-Ile-Ile-Trp], for which the half-maximal inhibitory concentration (IC50) is more than 10 µM.

One may read the IC50 as the concentration needed to halve the response being measured. A high value points to weaker potency in that assay.
